Measurements: US4898940A (priority 1989, dated 1990)
In brackets after ≈: the same amount, converted by molar mass.

What was measured:
Solubility in solvents = format: physicochemical
Piricularia oryzae = format: cell-based; details: Piricularia oryzae D 91; Sabouraud dextrose agar
[1] = tested on: Lymphocytic leukemia P388; experiment: Antitumor activity against P388 leukemia in mice; format: in vivo, CDF1 and BDF1 mice; details: for T/C % of MST: P388 leukemia; for antitumor activity against P388 leukemia (in words): ip
Procedure: (§1) Lymphocytic leukemia P388 (CDF1 and BDF1 mice) and lymphoid leukemia L1210 (BDF1 mice) were inoculated by intraperitoneal injection of 0.8 ml diluted ascitic fluid containing 10^6 and 10^5 cells per mouse, respectively. Melanotic melanoma B16 (BDF1 mice) were implanted 0.5 ml of a 10% tumor brei intraperitoneally. Test materials were dissolved in 0.9% saline containing 10% dimethyl sulfoxide and graded doses of them were administered to mice intraperitoneally 24 hours after tumor implantation. Either olivomycin (NSC 38270) or mitomycin C was comparatively tested as a reference compound in the experiments.
Values for percentage ratios of 125 and above indicate significant antitumor effect.

Blastomyces dermaditis = experiment: MIC, serial agar dilution (Sabouraud dextrose agar); format: cell-based; details: Blastomyces dermaditis IFO 8144
Source text: (§2) Nutrient agar (Eiken) was used for bacteria and Sabouraud dextrose agar (Difco) for fungi. The inoculum size was adjusted to 10^4 CFU/ml for bacteria and 10^5 -10^7 CFU/ml for fungi.

Sporothrix schenckii = experiment: as above; format: cell-based; details: Sporothrix schenckii IFO 8158
Source text: as §2

Fusarium moniliforme = experiment: as above; format: cell-based; details: Fusarium moniliforme A 2284
Source text: as §2

Candida albicans = experiment: as above; format: cell-based
Source text: as §2

Aspergillus fumigatus = experiment: as above; format: cell-based
Source text: as §2

Cryptococcus neoformans = experiment: as above; format: cell-based
Source text: as §2

Petriellidium boydii = experiment: as above; format: cell-based; details: Petriellidium boydii IFO 8073
Source text: as §2

Mucor spinosus = experiment: as above; format: cell-based; details: Mucor spinosus IFO 5317
Source text: as §2

Aspergillus flavus = experiment: as above; format: cell-based; details: Aspergillus flavus FA 21436
Source text: as §2

[2] = tested on: Trichophyton mentagrophytes; experiment: as above; format: cell-based
Source text: as §2

[3] = tested on: pathogenic fungi such as Candida albicans, Cryptococcus neoformans, Aspergillus fumigatus, Trichlophyton mentagrophytes and Mucor spinosus; experiment: In vitro antifungal activity; format: cell-based; details: clinically important pathogenic fungi
Source text: as §2

[4] = tested on: gram-positive and gram-negative bacteria; experiment: In vitro antibacterial activity; format: cell-based
Source text: as §2

Serratia marcescens = experiment: MIC, serial agar dilution (nutrient agar); format: cell-based; details: Serratia marcescens A20222
Source text: as §2

Bacillus subtilis = experiment: MIC, serial agar dilution (nutrient agar); format: cell-based; details: Bacillus subtilis PCI-219
Source text: as §2

[5] = tested on: Staphylococcus epidermidis; experiment: MIC, serial agar dilution (nutrient agar); format: cell-based
Source text: as §2

Klebsiella pneumoniae = experiment: MIC, serial agar dilution (nutrient agar); format: cell-based; details: Klebsiella pneumoniae D-11
Source text: as §2

Micrococcus luteus = experiment: MIC, serial agar dilution (nutrient agar); format: cell-based; details: Micrococcus luteus PCI-1001
Source text: as §2

Proteus mirabilis = experiment: MIC, serial agar dilution (nutrient agar); format: cell-based; details: Proteus mirabilis A9554
Source text: as §2

Streptococcus faecalis = experiment: MIC, serial agar dilution (nutrient agar); format: cell-based; details: Streptococcus faecalis A9612
Source text: as §2

Proteus vulgaris = experiment: MIC, serial agar dilution (nutrient agar); format: cell-based; details: Proteus vulgaris A9436
Source text: as §2

Pseudomonas aeruginosa = experiment: MIC, serial agar dilution (nutrient agar); format: cell-based; details: Pseudomonas aeruginosa A9930
Source text: as §2

Enterobacter cloacae = experiment: MIC, serial agar dilution (nutrient agar); format: cell-based; details: Enterobacter cloacae A9659
Source text: as §2

Escherichia coli = experiment: MIC, serial agar dilution (nutrient agar); format: cell-based; details: Escherichia coli NIHJ
Source text: as §2

Morganella morganii = experiment: MIC, serial agar dilution (nutrient agar); format: cell-based; details: Morganella morganii A9553
Source text: as §2

Staphylococcus aureus = experiment: MIC, serial agar dilution (nutrient agar); format: cell-based
Source text: as §2

[6] = Acute toxicity, single intraperitoneal administration; details: male ddY mice
lymphoid leukemia L1210 = experiment: Antitumor activity against L1210 leukemia in mice; format: in vivo, BDF1 mice; details: L1210 leukemia, BDF1 mice
Procedure: as §1

Melanotic melanoma B16 = experiment: Antitumor activity against B16 melanoma in mice; format: in vivo, BDF1 mice; details: B16 melanoma, BDF1 mice
Procedure: as §1

[7] = 0.3 mg/kg/day ip, schedule 1 (once daily on days 1, 4 and 7)
[8] = 3 mg/kg/day ip, schedule 1 (once daily on days 1, 4 and 7)
[9] = treatment schedule 1 (once daily on days 1, 4 and 7)
[10] = Cryptococcus neoformans IAM 4514
[11] = Trichophyton mentagrophytes #4329
[12] = Trichophyton mentagrophytes D 155
[13] = Staphylococcus epidermidis A22152
[14] = Staphylococcus epidermidis D153
[15] = 0.031 mg/kg/day ip, schedule 2 (once daily on days 1 through 9)
[16] = 0.063 mg/kg/day ip, schedule 2 (once daily on days 1 through 9)
[17] = 0.13 mg/kg/day ip, schedule 2 (once daily on days 1 through 9)
[18] = 0.25 mg/kg/day ip, schedule 2 (once daily on days 1 through 9)
[19] = 0.5 mg/kg/day ip, schedule 2 (once daily on days 1 through 9)
[20] = 1 mg/kg/day ip, schedule 2 (once daily on days 1 through 9)

CCCCCC=CCCC=CC=CC(=O)NC(C(=O)NC1CC(O)CCNC(=O)C=CC(C)NC1=O)C(C)O (stereo not drawn) [BU-2867T B]
solubility in chloroform, acetonitrile and ethyl acetate (Solubility in solvents): slightly soluble | solubility in methanol, ethanol, n-butanol and dimethyl sulfoxide (Solubility in solvents): readily soluble | solubility in n-hexane and water (Solubility in solvents): practically insoluble | MIC (Piricularia oryzae): > 50 µg/mL | T/C % of MST [1, 7]: 120% | T/C % of MST ([1]; 1 mg/kg/day ip, schedule 1 (once daily on days 1, 4 and 7)): 140% | T/C % of MST [1, 8]: 165% | antitumor activity against P388 leukemia (in words) [1, 9]: showed antitumor activity | MIC (Blastomyces dermaditis): 50 µg/mL (≈ 91.5 µM) | MIC (Sporothrix schenckii): > 50 µg/mL | MIC (Fusarium moniliforme): > 50 µg/mL | MIC (Candida albicans; Candida albicans A 9540): 1.6 µg/mL (≈ 2.93 µM) | MIC (Candida albicans; Candida albicans IAM 4888): 3.1 µg/mL (≈ 5.67 µM) | MIC (Aspergillus fumigatus; Aspergillus fumigatus IAM 2034): 3.1 µg/mL (≈ 5.67 µM) | MIC (Aspergillus fumigatus; Aspergillus fumigatus IAM 2530): 31 µg/mL (≈ 56.7 µM) | MIC (Cryptococcus neoformans; Cryptococcus neoformans D 49): 25 µg/mL (≈ 45.7 µM) | MIC (Cryptococcus neoformans; [10]): 25 µg/mL (≈ 45.7 µM) | MIC (Petriellidium boydii): > 50 µg/mL | MIC (Mucor spinosus): 0.8 µg/mL (≈ 1.46 µM) | MIC (Aspergillus flavus): 25 µg/mL (≈ 45.7 µM) | MIC [2, 11]: 12.5 µg/mL (≈ 22.9 µM) | MIC [2, 12]: 12.5 µg/mL (≈ 22.9 µM) | antifungal activity (in words) [3]: somewhat less active than component C | activity against some gram-positive bacteria (in words) [4]: moderate activity | MIC (Serratia marcescens): > 50 µg/mL | MIC (Bacillus subtilis): 50 µg/mL (≈ 91.5 µM) | MIC [5, 13]: 50 µg/mL (≈ 91.5 µM) | MIC [5, 14]: 6.3 µg/mL (≈ 11.5 µM) | MIC (Klebsiella pneumoniae): > 50 µg/mL | MIC (Micrococcus luteus): 50 µg/mL (≈ 91.5 µM) | MIC (Proteus mirabilis): > 50 µg/mL | MIC (Streptococcus faecalis): > 50 µg/mL | MIC (Proteus vulgaris): > 50 µg/mL | MIC (Pseudomonas aeruginosa): > 50 µg/mL | MIC (Enterobacter cloacae): > 50 µg/mL | MIC (Escherichia coli): > 50 µg/mL | MIC (Morganella morganii): > 50 µg/mL | MIC (Staphylococcus aureus; Staphyloccus aureus Bx-1633): 50 µg/mL (≈ 91.5 µM) | MIC (Staphylococcus aureus; Staphylococcus aureus 209P): 25 µg/mL (≈ 45.7 µM) | MIC (Staphylococcus aureus; Staphylococcus aureus Smith): 3.1 µg/mL (≈ 5.67 µM)

CCCCCCCCCC=CC=CC(=O)NC(C(=O)NC1CC(O)CCNC(=O)C=CC(C)NC1=O)C(C)O (stereo not drawn) [BU-2867T C]
solubility in chloroform, acetonitrile and ethyl acetate (Solubility in solvents): slightly soluble | solubility in methanol, ethanol, n-butanol and dimethyl sulfoxide (Solubility in solvents): readily soluble | solubility in n-hexane and water (Solubility in solvents): practically insoluble | MIC (Piricularia oryzae): > 50 µg/mL | T/C % of MST [1, 15]: 100% | T/C % of MST [1, 16]: 123% | T/C % of MST [1, 17]: 153% | T/C % of MST [1, 18]: 159% | T/C % of MST [1, 7]: 130% | T/C % of MST [1, 19]: 175% | T/C % of MST [1, 20]: 189% | T/C % of MST ([1]; 2 mg/kg/day ip, schedule 2 (once daily on days 1 through 9)): 234% | T/C % of MST [1, 8]: 155% | antitumor activity against P388 leukemia (in words) [1, 9]: showed antitumor activity | antitumor activity against P388 leukemia (in words) ([1]; treatment schedule 2 (once daily on days 1 through 9)): highly active | LD50 [6]: 25 mg/kg | MIC (Blastomyces dermaditis): > 50 µg/mL | MIC (Sporothrix schenckii): > 50 µg/mL | MIC (Fusarium moniliforme): > 50 µg/mL | MIC (Candida albicans; Candida albicans A 9540): 0.8 µg/mL (≈ 1.46 µM) | MIC (Candida albicans; Candida albicans IAM 4888): 1.6 µg/mL (≈ 2.92 µM) | MIC (Aspergillus fumigatus; Aspergillus fumigatus IAM 2034): 0.8 µg/mL (≈ 1.46 µM) | MIC (Aspergillus fumigatus; Aspergillus fumigatus IAM 2530): 0.8 µg/mL (≈ 1.46 µM) | MIC (Cryptococcus neoformans; Cryptococcus neoformans D 49): 3.1 µg/mL (≈ 5.65 µM) | MIC (Cryptococcus neoformans; [10]): 3.1 µg/mL (≈ 5.65 µM) | MIC (Petriellidium boydii): 50 µg/mL (≈ 91.1 µM) | MIC (Mucor spinosus): 0.2 µg/mL (≈ 0.364 µM) | MIC (Aspergillus flavus): 50 µg/mL (≈ 91.1 µM) | MIC [2, 11]: 6.3 µg/mL (≈ 11.5 µM) | MIC [2, 12]: 1.6 µg/mL (≈ 2.92 µM) | antifungal activity (in words) [3]: potent antifungal activity | growth inhibition of gram-positive and gram-negative bacteria (in words) ([4]; at 50 mcg/ml): did not inhibit the growth | MIC (Serratia marcescens): > 50 µg/mL | MIC (Bacillus subtilis): > 50 µg/mL | MIC [5, 13]: > 50 µg/mL | MIC [5, 14]: > 50 µg/mL | MIC (Klebsiella pneumoniae): > 50 µg/mL | MIC (Micrococcus luteus): > 50 µg/mL | MIC (Proteus mirabilis): > 50 µg/mL | MIC (Streptococcus faecalis): > 50 µg/mL | MIC (Proteus vulgaris): > 50 µg/mL | MIC (Pseudomonas aeruginosa): > 50 µg/mL | MIC (Enterobacter cloacae): > 50 µg/mL | MIC (Escherichia coli): > 50 µg/mL | MIC (Morganella morganii): > 50 µg/mL | MIC (Staphylococcus aureus; Staphyloccus aureus Bx-1633): > 50 µg/mL | MIC (Staphylococcus aureus; Staphylococcus aureus 209P): > 50 µg/mL | MIC (Staphylococcus aureus; Staphylococcus aureus Smith): > 50 µg/mL

CO[C@@]12[C@H](COC(N)=O)C3=C(C(=O)C(C)=C(N)C3=O)N1C[C@@H]1N[C@@H]12 [Mitomycin C, reference compound]
T/C % of MST (lymphoid leukemia L1210; 0.063 mg/kg/day ip): 106% | T/C % of MST (lymphoid leukemia L1210; 0.13 mg/kg/day ip): 129% | T/C % of MST (lymphoid leukemia L1210; 0.25 mg/kg/day ip): 129% | T/C % of MST (lymphoid leukemia L1210; 0.5 mg/kg/day ip): 141% | T/C % of MST (lymphoid leukemia L1210; 1 mg/kg/day ip): 140% | T/C % of MST (Melanotic melanoma B16; 0.13 mg/kg/day ip): 131% | T/C % of MST (Melanotic melanoma B16; 0.25 mg/kg/day ip): 141% | T/C % of MST (Melanotic melanoma B16; 0.5 mg/kg/day ip): 163% | T/C % of MST (Melanotic melanoma B16; 1 mg/kg/day ip): 181% | T/C % of MST (Melanotic melanoma B16; 2 mg/kg/day ip): 63% | T/C % of MST [1, 15]: 115% | T/C % of MST [1, 16]: 130% | T/C % of MST [1, 17]: 150% | T/C % of MST [1, 18]: 170% | T/C % of MST [1, 19]: 240% | T/C % of MST [1, 20]: 290%

Olivomycin A [reference compound]
T/C % of MST [1, 7]: 100%
